Assay results: patent publication US10266537B2, “3-acetylenyl-pyrazole-pyrimidine derivative, and preparation method therefor and uses thereof” (Si Chuan University, priority 2015, dated 2019)
pIC50: −log10 of the molar value.

Key:
H4 = test: Cell proliferation inhibition assay (MTT); type: cell-based; settings: Homo sapiens, 72 hours, read-out: Proliferation inhibitory activity IC50
Procedure: (§1) The cells were seeded in 96-well plates with 200 μL of cell suspension per well and incubated overnight in a cell culture medium with a cell concentration of 1 2×10^4 cells/mL. The next day, the supernatant was discarded (the suspension cell was centrifuged before it) and the cells were treated with gradient concentrations of the test compound, respectively. […] After 72 hours, add 20 μL of MTT reagent at a concentration of 5 mg/mL per well. After incubation for 2-4 h, the supernatant was discarded and 150 μL of DMSO was added to each well. […] Relative cell proliferation inhibition rate=([MUT]-[MUT])×100%/[MUT]. The experiment was repeated at least 3 times. Experimental data were expressed as mean, data statistics using t test, P<0.05 for the difference was statistically significant.

U87 = test: Cell proliferation inhibition assay (MTT); type: cell-based; settings: Homo sapiens, U-87 MG, 72 hours, read-out: Proliferation inhibitory activity IC50
Procedure: as §1

SAPK2a = SAPK2a (Homo sapiens (Human), UniProt Q16539); test: Kinase inhibition assay (KinaseProfiler, 33P-ATP); type: biochemical; settings: SAPK2a(h), read-out: The percentage of the remaining active protein
FGFR3 = FGFR3 (Homo sapiens (Human), UniProt P22607); test: Kinase inhibition assay (KinaseProfiler, 33P-ATP); type: biochemical; settings: FGFR3(h), read-out: The percentage of the remaining active protein
TGFBR1(h) = TGFBR1(h) (Homo sapiens (Human), UniProt P36897); test: Kinase inhibition assay (KinaseProfiler, 33P-ATP); type: biochemical; settings: read-out: The percentage of the remaining active protein
p70S6K(h) = p70S6K(h) (Homo sapiens (Human), UniProt P23443); test: Kinase inhibition assay (KinaseProfiler, 33P-ATP); type: biochemical; settings: read-out: The percentage of the remaining active protein
[1] = target: PI3 Kinase (p110b/p85a)(m) (Mus musculus (Mouse), UniProt Q8BTI9); test: Kinase inhibition assay (KinaseProfiler, 33P-ATP); type: biochemical; settings: read-out: The percentage of the remaining active protein
IGF-1R(h) = IGF-1R(h) (Homo sapiens (Human), UniProt P08069); test: Kinase inhibition assay (KinaseProfiler, 33P-ATP); type: biochemical; settings: read-out: The percentage of the remaining active protein
DAPK1(h) = DAPK1(h) (Homo sapiens (Human), UniProt P53355); test: Kinase inhibition assay (KinaseProfiler, 33P-ATP); type: biochemical; settings: read-out: The percentage of the remaining active protein
WNK3(h) = WNK3(h) (Homo sapiens (Human), UniProt Q9BYP7); test: Kinase inhibition assay (KinaseProfiler, 33P-ATP); type: biochemical; settings: read-out: The percentage of the remaining active protein
Met(D1246N)(h) = Met(D1246N)(h) (Homo sapiens (Human), UniProt P08581, D1246N); test: Kinase inhibition assay (KinaseProfiler, 33P-ATP); type: biochemical; settings: read-out: The percentage of the remaining active protein
STK33(h) = STK33(h) (Homo sapiens (Human), UniProt Q9BYT3); test: Kinase inhibition assay (KinaseProfiler, 33P-ATP); type: biochemical; settings: read-out: The percentage of the remaining active protein
PAK4(h) = PAK4(h) (Homo sapiens (Human), UniProt O96013); test: Kinase inhibition assay (KinaseProfiler, 33P-ATP); type: biochemical; settings: read-out: The percentage of the remaining active protein
Rse = Rse (Homo sapiens (Human), UniProt Q06418); test: Kinase inhibition assay (KinaseProfiler, 33P-ATP); type: biochemical; settings: Rse(h), read-out: The percentage of the remaining active protein
PDK1(h) = PDK1(h) (Homo sapiens (Human), UniProt O15530); test: Kinase inhibition assay (KinaseProfiler, 33P-ATP); type: biochemical; settings: read-out: The percentage of the remaining active protein
ZIPK(h) = ZIPK(h) (Homo sapiens (Human), UniProt O43293); test: Kinase inhibition assay (KinaseProfiler, 33P-ATP); type: biochemical; settings: read-out: The percentage of the remaining active protein
IKKε(h) = IKKε(h) (Homo sapiens (Human), UniProt Q14164); test: Kinase inhibition assay (KinaseProfiler, 33P-ATP); type: biochemical; settings: read-out: The percentage of the remaining active protein
Plk3(h) = Plk3(h) (Homo sapiens (Human), UniProt Q9H4B4); test: Kinase inhibition assay (KinaseProfiler, 33P-ATP); type: biochemical; settings: read-out: The percentage of the remaining active protein
PDGFRα (D842V) = PDGFRα (D842V) (Homo sapiens (Human), UniProt P16234, D842V); test: Kinase inhibition assay (KinaseProfiler, 33P-ATP); type: biochemical; settings: PDGFRα(D842V)(h), read-out: The percentage of the remaining active protein
EGFR(T790M, L858R) = EGFR(T790M, L858R) (Homo sapiens (Human), UniProt P00533, L858R/T790M); test: Kinase inhibition assay (KinaseProfiler, 33P-ATP); type: biochemical; settings: EGFR(T790M, L858R)(h), read-out: The percentage of the remaining active protein
MAPK2(h) = MAPK2(h) (Homo sapiens (Human), UniProt P28482); test: Kinase inhibition assay (KinaseProfiler, 33P-ATP); type: biochemical; settings: read-out: The percentage of the remaining active protein
Flt4 = Flt4 (Homo sapiens (Human), UniProt P35916); test: Kinase inhibition assay (KinaseProfiler, 33P-ATP); type: biochemical; settings: Flt4(h), read-out: The percentage of the remaining active protein
CaMKI(h) = CaMKI(h) (Homo sapiens (Human), UniProt Q14012); test: Kinase inhibition assay (KinaseProfiler, 33P-ATP); type: biochemical; settings: read-out: The percentage of the remaining active protein
TYK2(h) = TYK2(h) (Homo sapiens (Human), UniProt P29597); test: Kinase inhibition assay (KinaseProfiler, 33P-ATP); type: biochemical; settings: read-out: The percentage of the remaining active protein
SIK(h) = SIK(h) (Homo sapiens (Human), UniProt P57059); test: Kinase inhibition assay (KinaseProfiler, 33P-ATP); type: biochemical; settings: read-out: The percentage of the remaining active protein
PASK(h) = PASK(h) (Homo sapiens (Human), UniProt Q96RG2); test: Kinase inhibition assay (KinaseProfiler, 33P-ATP); type: biochemical; settings: read-out: The percentage of the remaining active protein
LTK(h) = LTK(h) (Homo sapiens (Human), UniProt P29376); test: Kinase inhibition assay (KinaseProfiler, 33P-ATP); type: biochemical; settings: read-out: The percentage of the remaining active protein
cKit(D816V)(h) = cKit(D816V)(h) (Homo sapiens (Human), UniProt P10721, D816V); test: Kinase inhibition assay (KinaseProfiler, 33P-ATP); type: biochemical; settings: read-out: The percentage of the remaining active protein
Aurora-A(h) = Aurora-A(h) (Homo sapiens (Human), UniProt O14965); test: Kinase inhibition assay (KinaseProfiler, 33P-ATP); type: biochemical; settings: read-out: The percentage of the remaining active protein
Abl (Q252H)(h) = Abl (Q252H)(h) (Homo sapiens (Human), UniProt P00519, Q252H); test: Kinase inhibition assay (KinaseProfiler, 33P-ATP); type: biochemical; settings: read-out: The percentage of the remaining active protein
PKG1α(h) = PKG1α(h) (Homo sapiens (Human), UniProt Q13976); test: Kinase inhibition assay (KinaseProfiler, 33P-ATP); type: biochemical; settings: read-out: The percentage of the remaining active protein
CDK4/cyclinD3(h) = CDK4/cyclinD3(h) (Homo sapiens (Human), UniProt P11802); test: Kinase inhibition assay (KinaseProfiler, 33P-ATP); type: biochemical; settings: read-out: The percentage of the remaining active protein
Arg = Arg (Homo sapiens, UniProt P42684); test: Kinase inhibition assay (KinaseProfiler, 33P-ATP)
IRAK4(h) = IRAK4(h) (Homo sapiens (Human), UniProt Q9NWZ3); test: Kinase inhibition assay (KinaseProfiler, 33P-ATP); type: biochemical; settings: read-out: The percentage of the remaining active protein
MSK1(h) = MSK1(h) (Homo sapiens (Human), UniProt O75582); test: Kinase inhibition assay (KinaseProfiler, 33P-ATP); type: biochemical; settings: read-out: The percentage of the remaining active protein

Chain of Arg (P42684 2-1182 limits assumed): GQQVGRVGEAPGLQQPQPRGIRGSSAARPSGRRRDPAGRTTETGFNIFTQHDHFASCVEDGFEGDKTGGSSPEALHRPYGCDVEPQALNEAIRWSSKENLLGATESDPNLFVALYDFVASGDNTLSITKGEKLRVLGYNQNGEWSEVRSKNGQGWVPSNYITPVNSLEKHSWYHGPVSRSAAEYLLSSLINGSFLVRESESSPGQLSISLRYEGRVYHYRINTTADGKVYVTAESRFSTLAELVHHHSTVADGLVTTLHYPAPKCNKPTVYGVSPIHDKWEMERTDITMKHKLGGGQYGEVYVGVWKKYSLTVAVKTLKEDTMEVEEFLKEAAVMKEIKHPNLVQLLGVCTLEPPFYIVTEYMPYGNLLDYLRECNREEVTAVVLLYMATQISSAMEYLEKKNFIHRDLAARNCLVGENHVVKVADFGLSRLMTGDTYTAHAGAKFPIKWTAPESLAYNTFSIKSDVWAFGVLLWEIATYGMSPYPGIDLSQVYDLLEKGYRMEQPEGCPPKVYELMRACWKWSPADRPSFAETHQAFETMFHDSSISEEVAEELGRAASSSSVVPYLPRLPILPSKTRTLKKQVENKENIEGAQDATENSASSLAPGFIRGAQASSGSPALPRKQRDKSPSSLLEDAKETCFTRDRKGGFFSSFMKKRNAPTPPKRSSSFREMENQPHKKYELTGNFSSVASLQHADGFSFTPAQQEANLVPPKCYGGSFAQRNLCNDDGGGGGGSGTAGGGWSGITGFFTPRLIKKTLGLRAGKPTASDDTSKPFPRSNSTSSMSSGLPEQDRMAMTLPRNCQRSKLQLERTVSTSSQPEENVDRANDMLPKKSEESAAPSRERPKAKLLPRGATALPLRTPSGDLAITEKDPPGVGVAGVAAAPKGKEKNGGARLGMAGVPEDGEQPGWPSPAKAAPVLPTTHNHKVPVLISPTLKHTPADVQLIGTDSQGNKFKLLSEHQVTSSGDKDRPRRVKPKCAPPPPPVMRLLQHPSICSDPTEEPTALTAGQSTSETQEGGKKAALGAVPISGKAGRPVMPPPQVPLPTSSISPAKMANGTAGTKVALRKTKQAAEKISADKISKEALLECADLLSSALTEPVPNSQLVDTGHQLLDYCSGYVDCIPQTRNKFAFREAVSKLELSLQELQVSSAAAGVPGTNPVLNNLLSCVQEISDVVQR
Chain of Plk3(h) (Q9H4B4 whole entry): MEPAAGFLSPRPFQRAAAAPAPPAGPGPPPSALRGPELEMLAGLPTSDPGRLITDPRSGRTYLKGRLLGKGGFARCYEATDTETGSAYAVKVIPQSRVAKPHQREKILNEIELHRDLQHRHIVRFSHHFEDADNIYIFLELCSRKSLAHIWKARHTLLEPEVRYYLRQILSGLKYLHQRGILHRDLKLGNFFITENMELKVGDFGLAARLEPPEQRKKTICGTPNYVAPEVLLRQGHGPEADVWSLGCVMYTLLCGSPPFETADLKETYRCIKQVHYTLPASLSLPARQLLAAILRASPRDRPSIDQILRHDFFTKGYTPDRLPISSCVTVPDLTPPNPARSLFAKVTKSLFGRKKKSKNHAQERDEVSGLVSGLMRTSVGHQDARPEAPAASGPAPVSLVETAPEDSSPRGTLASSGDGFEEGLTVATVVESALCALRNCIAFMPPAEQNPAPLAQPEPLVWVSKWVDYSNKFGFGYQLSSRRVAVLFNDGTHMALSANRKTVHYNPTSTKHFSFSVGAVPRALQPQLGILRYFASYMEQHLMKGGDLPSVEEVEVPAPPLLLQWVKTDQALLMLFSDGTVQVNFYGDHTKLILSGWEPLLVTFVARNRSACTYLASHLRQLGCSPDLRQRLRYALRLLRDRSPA
Chain of SIK(h) (P57059 whole entry): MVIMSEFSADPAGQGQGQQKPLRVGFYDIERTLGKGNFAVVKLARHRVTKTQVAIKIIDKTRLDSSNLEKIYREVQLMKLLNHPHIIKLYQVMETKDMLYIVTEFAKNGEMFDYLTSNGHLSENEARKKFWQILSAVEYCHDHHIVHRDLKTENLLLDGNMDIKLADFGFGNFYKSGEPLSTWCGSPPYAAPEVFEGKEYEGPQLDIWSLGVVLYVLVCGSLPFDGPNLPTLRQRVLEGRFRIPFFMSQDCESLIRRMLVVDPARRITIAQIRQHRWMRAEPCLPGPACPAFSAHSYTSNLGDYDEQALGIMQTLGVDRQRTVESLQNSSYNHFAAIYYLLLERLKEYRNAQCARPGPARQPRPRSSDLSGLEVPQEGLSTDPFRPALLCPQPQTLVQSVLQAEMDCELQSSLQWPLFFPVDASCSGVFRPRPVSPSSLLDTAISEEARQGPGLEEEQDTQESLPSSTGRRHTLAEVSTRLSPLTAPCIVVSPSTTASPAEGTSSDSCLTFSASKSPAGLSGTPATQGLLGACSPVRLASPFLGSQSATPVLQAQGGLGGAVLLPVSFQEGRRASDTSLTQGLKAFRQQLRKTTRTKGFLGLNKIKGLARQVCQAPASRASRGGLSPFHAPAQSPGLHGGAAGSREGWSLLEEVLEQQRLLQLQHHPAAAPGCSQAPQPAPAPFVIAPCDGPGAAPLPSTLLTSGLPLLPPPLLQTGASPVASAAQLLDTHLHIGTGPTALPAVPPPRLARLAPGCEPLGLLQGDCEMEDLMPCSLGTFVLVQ
Chain of EGFR(T790M, L858R) (P00533 25-1210 T790M/L858R): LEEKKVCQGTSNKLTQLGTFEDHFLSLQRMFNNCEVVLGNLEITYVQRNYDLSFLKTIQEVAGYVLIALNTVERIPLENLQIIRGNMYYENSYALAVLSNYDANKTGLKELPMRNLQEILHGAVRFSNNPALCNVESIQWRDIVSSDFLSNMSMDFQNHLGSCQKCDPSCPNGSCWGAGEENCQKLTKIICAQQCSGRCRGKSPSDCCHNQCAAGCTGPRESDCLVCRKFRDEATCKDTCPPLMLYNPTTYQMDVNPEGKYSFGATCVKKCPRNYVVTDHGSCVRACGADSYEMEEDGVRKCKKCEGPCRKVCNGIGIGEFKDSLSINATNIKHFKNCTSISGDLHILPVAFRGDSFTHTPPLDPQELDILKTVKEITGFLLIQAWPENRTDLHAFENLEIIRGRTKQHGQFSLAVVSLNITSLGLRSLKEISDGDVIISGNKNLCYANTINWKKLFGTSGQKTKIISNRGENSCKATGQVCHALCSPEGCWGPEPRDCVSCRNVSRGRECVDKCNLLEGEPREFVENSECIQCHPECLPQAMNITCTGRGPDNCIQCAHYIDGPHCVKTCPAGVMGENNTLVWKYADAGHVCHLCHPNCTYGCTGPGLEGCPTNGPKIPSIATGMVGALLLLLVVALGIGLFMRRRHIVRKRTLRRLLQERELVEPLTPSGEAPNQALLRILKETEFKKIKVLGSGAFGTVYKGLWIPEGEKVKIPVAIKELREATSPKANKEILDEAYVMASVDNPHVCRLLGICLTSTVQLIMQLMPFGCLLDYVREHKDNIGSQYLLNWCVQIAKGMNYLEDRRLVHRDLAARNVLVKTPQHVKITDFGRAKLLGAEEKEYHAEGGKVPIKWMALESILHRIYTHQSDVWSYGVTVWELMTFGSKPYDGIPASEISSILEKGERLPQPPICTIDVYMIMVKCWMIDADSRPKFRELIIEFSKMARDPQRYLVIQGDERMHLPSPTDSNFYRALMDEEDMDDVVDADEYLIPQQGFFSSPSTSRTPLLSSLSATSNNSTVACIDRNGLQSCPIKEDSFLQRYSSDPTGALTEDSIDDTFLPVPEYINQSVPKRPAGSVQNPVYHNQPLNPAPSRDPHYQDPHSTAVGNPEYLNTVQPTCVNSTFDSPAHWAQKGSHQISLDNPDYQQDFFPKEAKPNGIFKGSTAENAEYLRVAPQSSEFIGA
Chain of CDK4/cyclinD3(h) (P11802 whole entry): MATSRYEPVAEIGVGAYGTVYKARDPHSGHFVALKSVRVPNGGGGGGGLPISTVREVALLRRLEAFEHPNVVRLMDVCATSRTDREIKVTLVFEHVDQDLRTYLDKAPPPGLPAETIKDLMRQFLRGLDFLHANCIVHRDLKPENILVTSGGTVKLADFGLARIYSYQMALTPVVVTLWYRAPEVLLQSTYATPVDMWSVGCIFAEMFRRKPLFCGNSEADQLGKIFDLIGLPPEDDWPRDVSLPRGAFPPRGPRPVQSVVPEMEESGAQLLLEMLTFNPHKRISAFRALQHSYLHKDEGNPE
Chain of CDK4/cyclinD3(h) (P30281 whole entry partner): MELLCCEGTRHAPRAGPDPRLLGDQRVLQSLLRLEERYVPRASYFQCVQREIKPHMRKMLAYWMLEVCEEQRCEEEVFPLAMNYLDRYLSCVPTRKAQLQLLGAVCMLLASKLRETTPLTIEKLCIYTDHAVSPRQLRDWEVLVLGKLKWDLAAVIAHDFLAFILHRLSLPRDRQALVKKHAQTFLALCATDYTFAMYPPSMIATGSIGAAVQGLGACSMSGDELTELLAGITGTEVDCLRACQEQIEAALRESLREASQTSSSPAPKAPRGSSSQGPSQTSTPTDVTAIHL
Chain of SAPK2a (Q16539 whole entry): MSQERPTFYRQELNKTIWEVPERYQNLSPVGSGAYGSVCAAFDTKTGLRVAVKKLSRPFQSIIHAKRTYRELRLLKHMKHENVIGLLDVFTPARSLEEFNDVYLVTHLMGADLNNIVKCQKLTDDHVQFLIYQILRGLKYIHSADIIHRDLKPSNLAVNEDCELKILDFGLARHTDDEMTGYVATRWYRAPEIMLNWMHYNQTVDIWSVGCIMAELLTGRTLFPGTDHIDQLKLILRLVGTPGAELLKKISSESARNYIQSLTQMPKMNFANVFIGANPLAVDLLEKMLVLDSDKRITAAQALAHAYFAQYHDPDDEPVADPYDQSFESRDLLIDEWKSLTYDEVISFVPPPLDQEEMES

In the case of Cc1ccc(NC(=O)c2cccc(C(F)(F)F)c2)cc1C#Cc1nn(C2CCN(C)CC2)c2ncnc(N)c12 [Compound 31], the pIC50 (H4) was 5.74 and the pIC50 (U87) was 5.27.
In the case of Cc1ccc(NC(=O)c2ccc(C)c(C(F)(F)F)c2)cc1C#Cc1nn([C@H]2CC[C@H](O)CC2)c2ncnc(N)c12 [Compound 93], the remaining activity at 10 µM (SAPK2a) was 3%, the remaining activity at 10 µM (FGFR3) was 3% and the remaining activity at 10 µM (TGFBR1(h)) was 105%. The remaining activity at 10 µM (p70S6K(h)) was 33%, the remaining activity at 10 µM [1] was 84% and the remaining activity at 10 µM (IGF-1R(h)) was 66%. For the same compound, the remaining activity at 10 µM (DAPK1(h)) was 97%, the remaining activity at 10 µM (WNK3(h)) was 39% and the remaining activity at 10 µM (Met(D1246N)(h)) was 103%. It also gave a remaining activity at 10 µM (STK33(h)) of 109%, a remaining activity at 10 µM (PAK4(h)) of 88% and a remaining activity at 10 µM (Rse) of 2%. The remaining activity at 10 µM (PDK1(h)) was 113%, the remaining activity at 10 µM (ZIPK(h)) was 110% and the remaining activity at 10 µM (IKKε(h)) was 94%. For the same compound, the remaining activity at 10 µM (Plk3(h)) was 93%, the remaining activity at 10 µM (PDGFRα (D842V)) was 0% and the remaining activity at 10 µM (EGFR(T790M, L858R)) was 0%. The remaining activity at 10 µM (MAPK2(h)) was 108%, the remaining activity at 10 µM (Flt4) was 1% and the remaining activity at 10 µM (CaMKI(h)) was 62%. For the same compound, the remaining activity at 10 µM (TYK2(h)) was 36%, the remaining activity at 10 µM (SIK(h)) was 7% and the remaining activity at 10 µM (PASK(h)) was 113%. It also gave a remaining activity at 10 µM (LTK(h)) of 73%, a remaining activity at 10 µM (cKit(D816V)(h)) of 9% and a remaining activity at 10 µM (Aurora-A(h)) of 64%. The remaining activity at 10 µM (Abl (Q252H)(h)) was 2%, the remaining activity at 10 µM (PKG1α(h)) was 118% and the remaining activity at 10 µM (CDK4/cyclinD3(h)) was 86%. For the same compound, the pIC50 (Arg; Arg, ATP at Km) was 8.40, the remaining activity at 10 µM (Arg; read-out: The percentage of the remaining active protein) was 0% and the remaining activity at 10 µM (IRAK4(h)) was 101%. For the same compound, the remaining activity at 10 µM (MSK1(h)) was 95%.
